In paper PMC3407035 (Journal of enzyme inhibition and medicinal chemistry, 2011):

Tests used:
[1] = target: T1, Human GGT1 (gamma-glutamyl transpeptidase, GGT) (Homo sapiens, UniProt P19440); assay: pNA release at […] nm, transpeptidation; format: biochemical
[2] = target: T1, Human GGT1 (gamma-glutamyl transpeptidase, GGT); assay: pNA release at […] nm, hydrolysis; format: biochemical; conditions: read-out: D-GpNA Minus acceptor; no acceptor, pH 7.4, 37 °C

T1 sequence (P19440 27-380 limits assumed): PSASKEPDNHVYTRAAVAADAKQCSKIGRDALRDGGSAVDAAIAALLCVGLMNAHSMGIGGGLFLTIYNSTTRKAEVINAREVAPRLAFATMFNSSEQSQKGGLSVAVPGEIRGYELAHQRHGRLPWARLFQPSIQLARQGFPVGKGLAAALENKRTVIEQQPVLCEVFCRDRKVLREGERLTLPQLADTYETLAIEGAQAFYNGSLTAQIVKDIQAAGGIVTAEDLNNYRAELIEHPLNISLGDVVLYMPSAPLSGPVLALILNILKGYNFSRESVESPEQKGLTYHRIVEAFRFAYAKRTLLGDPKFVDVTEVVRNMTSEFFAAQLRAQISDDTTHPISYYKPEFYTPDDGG
T1 sequence (P19440 381-569 limits assumed): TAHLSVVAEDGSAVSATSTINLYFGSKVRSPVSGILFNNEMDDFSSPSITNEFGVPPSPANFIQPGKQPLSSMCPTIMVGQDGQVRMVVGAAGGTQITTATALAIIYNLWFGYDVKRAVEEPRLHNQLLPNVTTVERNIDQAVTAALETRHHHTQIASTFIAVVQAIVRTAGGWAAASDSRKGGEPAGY

COc1ccc(Cc2nnc(NS(=O)(=O)c3ccc(Cl)cc3)s2)cc1 [compound 10, Compound 10]
Ki [1]: 13.4 ± 0.8 µM

COc1ccc(Cc2nnc(NS(=O)(=O)c3cccc4ccccc34)s2)cc1 [compound 6, Compound 6]
Ki [1]: 45.7 ± 3.4 µM

N[C@H](CCC(=O)Nc1ccc([N+](=O)[O-])cc1)C(=O)O [D-GpNA]
Km [2]: 160 ± 20 µM

Cc1ccc(Cc2nnc(NS(=O)(=O)c3ccc([N+](=O)[O-])cc3)s2)cc1 [compound 17, Compound 17]
Ki [1]: 56.9 ± 8.3 µM

Cc1cccc(Cc2nnc(NS(=O)(=O)c3ccc([N+](=O)[O-])cc3)s2)c1 [compound 18, Compound 18]
Ki [1]: 34.3 ± 0.9 µM
